Measurements taken from US9901649B2, “Block copolymers for therapeutic drug delivery” (INTERNATIONAL BUSINESS MACHINES CORPORATION, priority 2016, dated 2018).
Values after ≈ are worked out from the molar mass of the structure shown.

Key:
NCCFH-01 cells = assay: In vitro cytotoxicity, MTT assay; type: cell-based; settings: 48 hours, 37° C., pH 7.4, read-out: half maximal inhibitory concentration IC50
Description: BT-474 human breast cancer cell line was purchased from ATCC (Manassas, Va., U.S.A). Hereditary leiomyomastosis and renal cancer cells (NCCFH-01 cell line) was obtained from Dr. Min-Han Tan, Institute of Bioengineering and Nanotechnology, Singapore. Cells were cultured in RPMI-1640 medium containing 25 mM Hepes and L-Glutamine (Lonza, Singapore) supplemented with 10% fetal bovine serum (FBS), 100 U/mL penicillin and 100 μg/mL streptomycin at 37° C. in 5% CO2. 3-[4,5-Dimenthylthiazol-2-yl]-2,5-diphenyl tetrazolium bromide (MTT) was dissolved in phosphate-buffered saline (PBS, pH 7.4) with a concentration of 5 mg/mL, and the solution was filtered with a 0.22 micrometer filter to remove blue formazan crystals prior to usage.
Cytotoxicity of free DOX, DOX-loaded particles, and blank particles was determined through MTT assay. BT-474 cells and NCCFH-01 cells were seeded into 96-well plates at a density of 5×10^3 cells per well and incubated overnight in 100 microliters of RPMI-1640 containing 25 mM Hepes and L-Glutamine, supplemented with 10% FBS and 5% penicillin-streptomycin at 37 C, 5% CO2. […] After gentle agitation for 15 minutes, the absorbance of formazan crystals was taken to be that at 550 nm subtracted by that at 690 nm (TECAN, Switzerland). Cell viability was expressed as a percentage of absorbance of the control cells.

[1] = Mouse body weight change during the in vivo treatments; parameters: species or system female BALB/c nude mice; settings: nude mice bearing BT-474 xenografts; DOX 5 mg/kg, tail vein injection at day 0, 3, 6 and 10
Description: Female BALB/c nude mice were provided by Singapore Biological Research Center (BRC) at 6 weeks of age (20-22 g). All animal studies were adhered to protocols approved by the Singapore BRC's Institutional Animal Care and Use Committee. BT-474 cells (1×10^7) were suspended in 200 microliters of a solution containing Matrigel and PBS (volume ratio: 50/50) and subcutaneously injected into the right flank of female BALB/c nude mice. Estradiol pellet (0.72 mg/pellet, 60 days release) was subcutaneously administered into mice one day before the inoculation. Once the tumor volume reached about 200 mm^3 on the 14th day (recorded as day 0), the mice were randomly divided into 5 groups (7-8 animals per group): group 1 for 0.9% saline as control, group 2 for blank particles, group 3 for free DOX, group 4 for DOX-loaded particles LM-1, and group 5 for DOX-loaded particles LM-2. The dose of DOX in all formulations was 5 mg/kg. The formulations were given to mice via tail vein injection at day 0, 3, 6 and 10. At the predetermined time points, mice were weighed and tumor size was measured with a Vernier caliper. The tumor volume was calculated using the following formula: Tumor volume=length×width^2/2.

Q: What does the source list for `COc1cccc2c1C(=O)c1c(O)c3c(c(O)c1C2=O)C[C@@](O)(C(=O)CO)C[C@@H]3O[C@H]1C[C@H](N)[C@H](O)[C@H](C)O1` [DOX, Doxorubicin]?
A: IC50 (NCCFH-01 cells): 12.7 µg/mL (≈ 23.4 µM); body weight loss [1]: 20%
